Experimental data from patent US20240352415A1, “METHODS FOR THE GENERATION OF HUMAN RETINAL GANGLION CELLS AND COMPOSITIONS, ASSAYS, DEVICES, AND KITS COMPRISING SAME” (priority 2021, published 2024).
Entries after “also recorded” stand apart in the source; their conditions may differ.

Tests used:
[1] = test system: CONCEPT telencephalon-eye organoids; assay: Inhibition of FGF signaling in CONCEPT telencephalon-eye organoids with FGFR and MEK inhibitors (immunostaining readout); assay type: cell-based, human; details: inhibitor in culture medium starting on day 15, harvested day 24; PD 161570 1 μM, PD 0325901 2 μM; DMSO control
Procedure: CONCEPT telencephalon-eye organoids were generated as follows. A humidified incubator at 37° C. with 5% C02 was used for cell culture. H1 hESCs or iPSCs that were passaged using ReLeSR two or three days before experiments were detached using Dispase (GIBCO 17105041) and then harvested by centrifugation. After that, the cell pellets were suspended in ice-cold Matrigel. After gelling at 37° C. for 15-20 minutes, the hESC/Matrigel clump was gently dispersed in a N2B27 Medium (DMEM/F12+GlutaMAX (GIBCO):Neurobasal medium (GIBCO)=1:1, 0.5×B27 supplement (GIBCO), 0.5×N2 supplement (GIBCO), 0.1 mM β-mercaptoethanol, and 0.2 mM L-GlutaMax) for floating culture. With the starting day of cell differentiation designated as day 0, cysts with a single lumen formed on day 1. On days 3-5, individual cysts were manually picked using a curved Pasteur pipets under an inverted microscope and then seeded onto Matrigel-coated 24-well plates at a density of 2-6 cysts per well. Cysts spontaneously attached to the culture surface and grew. […] Culture mediums were changed every two or three days. To inactivate FGF signaling in CONCEPT organoids, FGFR1/2/3 inhibitor PD 161570 (1 μM; Tocris) and MEK1/2 inhibitor PD 0325901 (2 μM; Tocris) were supplemented to the culture medium staring on day 15. DMSO was used as a control. Treated CONCEPT organoids were harvested on day 24. CONCEPT telencephalon-eye organoids were fixed in 4% PFA for 15-30 minutes at room temperature and processed for immunostaining. These primary antibodies were used: […] Primary antibodies were visualized using Alexa Fluor 488-, 568-, and 647-conjugated secondary antibodies and imaged using a Zeiss AxioObserver Z1 microscope. […] In dual-color immunohistochemistry for PAX2 and FGF8, FGF8 was visualized using AP-conjugated anti mouse secondary antibody (Invitrogen A16038), and PAX2 was detected by biotin-conjugated anti rabbit secondary antibody (Invitrogen B2770) followed by […]-conjugated streptavidin (ThermoScientific 21130).

[2] = test system: voltage-gated potassium channels
[3] = test system: voltage-gated sodium channels; assay type: cell-based, human

Row | Compound | RGC somas and directional axon growth marked by CNTN2 expression [1] | optic disc cells marked by moderate-level PAX2 expression at the outer regions [1] | optic stalk cells marked by high-level PAX2 expression at the inner zone [1] | retinal (neuroretinal) progenitors marked by VSX2 expression [1] | effect on amplitude of outward currents [2] | mean IK±SD at 60 mV (outward potassium current amplitude) [2] | effect on inward currents [3] | mean INa+SD at −10 mV (inward sodium current amplitude) [3]
1 | CCN(CC)CCCCNc1ncc2cc(-c3c(Cl)cccc3Cl)c(NC(=O)NC(C)(C)C)nc2n1 [PD 161570] | drastically reduced or nearly absent | severely reduced | reduced | reduced | – | – | – | –
2 | O=C(NOC[C@H](O)CO)c1ccc(F)c(F)c1Nc1ccc(I)cc1F [PD 0325901] | substantially reduced or nearly absent; also recorded: drastically reduced | nearly absent | largely remained | largely remained | – | – | – | –
3 | CC[N+](CC)(CC)CC.[Cl-] [TEA, Tetraethylammonium-chloride] | – | – | – | – | significantly reduced | 279±201 pA | – | –
4 | NC1=N[C@H](O)[C@H]2[C@H]3O[C@]4(O)O[C@@H]([C@@H](O)[C@@]2(N1)[C@@H]4O)[C@]3(O)CO [TTX, Tetrodotoxin-citrate] | – | – | – | – | – | – | abolished all inward currents | −18.3±13 pA
